{"source": "patent US10828269B2", "about": "“Reducing muscle atrophy by administering astaxanthin” (FUJI CHEMICAL INDUSTRIES CO., LTD., priority 2004, dated 2020)", "assay_in_all_cases": "GeneChip gene expression in renal glomerulus", "type_in_all_cases": "in vivo, mouse", "key": {"[1]": {"tested_on": "insulin like growth factor 2 receptor", "conditions": "probe 1424111_at, 0.02% in diet, 12 weeks", "procedure": "(§1) Type II diabetic female db/db mice and non-diabetic db/m were purchased from Clea Japan, Inc. Mice were bred under the conditions with a 12 hours light-dark cycle at a temperature of 21° C. to 25° C. For acclimation, mice were fed CE-2 (Clea Japan, Inc.) with free access to water for one week. The mice were divided into three groups each consisting of 8 mice (non-diabetic db/m, diabetic db/db, and astaxanthin-administered db/db) and each group was bred with feed ad libitum. Mice in astaxanthin-administered group were fed a diet in which 0.02% astaxanthin in terms of free astaxanthin was compounded with CE-2. Each group was bred for 12 weeks, and body weight, blood glucose levels, 8-OHdG levels in urine, albumin levels in urine, and kidney histopathology, were measured. Astaxanthin used here was AstaReal (registered trademark, Fuji Chemical Industry Co., Ltd.) 50F, which is oil composed of astaxanthin fatty acid ester and triglycerides and contains 5% astaxanthin in terms of free astaxanthin.\n(§2) After the period of test breeding, kidney was removed and frozen at −80° C. Using an LM200 system (Olympus Corporation), the renal glomerulus was cut from kidney of mice while keeping low temperature. tRNA of renal glomerulus was extracted using tRNA extraction regent “Isogen” (produced by Nippon Gene Co., Ltd.), and then preparation of cRNA and hybridization were performed according to the Affymetrix GeneChip Eukaryotic Small Sample Target Labeling Assay Ver. II.\n(§3) (1) Synthesis of first strand cDNA: 1 μL of total RNA solution and 1 of 5 μM T7-Oligo(dT) primer were mixed, heated at 70° C. for 6 minutes, and then cooled at 4° C. for 2 minutes. 3 μL of RT_Premix_1 (1.5 μL DEPC-treated water, 4 μL 5× First strand Buffer, 2 μL DTT (0.1 M), 1.5 μL dNTP Mix (10 mM), 1 μL RNase inhibitor (40 U/μL), and 2 μL Super-Script II (200 U/μL)) was added and reverse transcribed at 42° C. for 1 hour. The sample was heated at 70° C. for 10 minutes to inactivate Super Script II, and then cooled to 4° C. (2) Synthesis of second strand cDNA: 32.5 μl of SS_Premix_1 (91 μL DEPC-treated water, 30 μL 5× Second Strand Buffer, 3 μL dNTP (10 mM), 1 μL E. coli DNA ligase (10 U/μL); 4 μL E. coli DNA polymerase (10 U/μL), and 1 μL RNase H (2 U/μL)) was added to the first strand cDNA solution and allowed to react for 2 hours at 16° C. (3) To the resulting cDNA, was added 1 μL T4 DNA polymerase (5 U/μl) and allowed to react for 10 minutes at 16° C., and purified by ethanol precipitation. (4) In vitro transcription: To the dried double-stranded cDNA pellet, was added 10 μL of reagents (4 μL DEPC-treated water, 4 μL premixed NTPs, 1 μL 10× reaction buffer, and 1 μL 10× enzyme mix), and allowed to react at 37° C. in a water bath for 6 hours. (5) First cycle cRNA was purified using the RNeasy Mini Kit in accordance with the protocol in the handbook (QIAGEN). (6) Subsequently, for the amplification and labeling, the cRNA sample was mixed with random primers (0.2 μg/μL), treated at 70° C. for 10 minutes, cooled on ice for 2 minutes, 5 μL of RT_Premix_2 (5× First Strand Buffer, DTT (0.1 M), dNTP mix (10 mM), RNase inhibitor (40 U/μL), and SuperScript II (200 U/μL) was added, and allowed to react at 42° C. for 1 hour. (7) Next, Second Sstrand cDNA synthesis was carried out by adding 5 μM T7-Oligo(dT) promoter treating at 70° C. for 6 minutes, cooling at 4° C., and adding 62 μL of SS_Premix_2 (43 μL it DEPC-treated water, 15 μL 5× Second Strand Buffer, 1.5 μL dNTP mix (10 mM), and 2 μL E. coli DNA polymerase (10 U/μL)). (8) To the resulting cDNA, was treated added 1 μL of T4 DNA polymerase (5 U/μL), allowed to react at 16° C. for 10 minutes, and purified by ethanol precipitation. […]"}, "[2]": {"tested_on": "macrophage scavenger receptor 1", "conditions": "probe 1448061_at, 0.02% in diet, 12 weeks", "procedure": "as §1, §2, §3"}, "[3]": {"tested_on": "MAD homolog 4 (Dorosophia)", "conditions": "probe 1422486_a_at, 0.02% in diet, 12 weeks", "procedure": "as §1, §2, §3"}, "[4]": {"tested_on": "catalase", "conditions": "probe 1416430_at, 0.02% in diet, 12 weeks", "procedure": "as §1, §2, §3"}, "[5]": {"tested_on": "isocitrate dehydrogenase 1 (NADP+), soluble", "conditions": "probe 1419821_s_at, 0.02% in diet, 12 weeks", "procedure": "as §1, §2, §3"}, "[6]": {"tested_on": "FK506 binding protein 1a", "conditions": "probe 1448184_at (Table 4), 0.02% in diet, 12 weeks", "procedure": "as §1, §2, §3"}, "[7]": {"tested_on": "granulin", "conditions": "probe 1438629_x_at, 0.02% in diet, 12 weeks", "procedure": "as §1, §2, §3"}, "[8]": {"tested_on": "secreted posphoprotein 1", "conditions": "probe 1449254_at, 0.02% in diet, 12 weeks", "procedure": "as §1, §2, §3"}, "[9]": {"tested_on": "caspase 7", "conditions": "probe 1434099_at, 0.02% in diet, 12 weeks", "procedure": "as §1, §2, §3"}, "[10]": {"tested_on": "superoxide dismutase 1, soluble", "conditions": "0.02% in diet, 12 weeks", "procedure": "as §1, §2, §3"}, "[11]": {"tested_on": "collagen, type XXV, alpha 1", "conditions": "probe 1438655_a_at, 0.02% in diet, 12 weeks", "procedure": "as §1, §2, §3"}}}
{"compound": "CC1=C(/C=C/C(C)=C/C=C/C(C)=C/C=C/C=C(C)/C=C/C=C(C)/C=C/C2=C(C)C(=O)C(O)CC2(C)C)C(C)(C)CC(O)C1=O", "note": "(stereo not drawn) [astaxanthin, 3,3′-dihydroxy-β,β-carotene-4,4′-dione]", "values": [{"measurement": "gene expression intensity ratio db/db(Ax):db/db", "setting": "[1]", "value": 0.87}, {"measurement": "gene expression intensity ratio db/db(Ax):db/m", "setting": "[1]", "value": 11.31}, {"measurement": "gene expression intensity ratio db/db(Ax):db/db", "setting": "[2]", "value": 0.25}, {"measurement": "gene expression intensity ratio db/db(Ax):db/m", "setting": "[2]", "value": 1.32}, {"measurement": "gene expression relative ratio db/db(Ax):db/db", "setting": "[3]", "value": 1.00}, {"measurement": "gene expression relative ratio db/db(Ax):db/m", "setting": "[3]", "value": 27.86}, {"measurement": "gene expression relative ratio db/db(Ax):db/db", "setting": "[4]", "value": 0.33}, {"measurement": "gene expression relative ratio db/db(Ax):db/m", "setting": "[4]", "value": 8.57}, {"measurement": "gene expression relative ratio db/db(Ax):db/db", "setting": "[5]", "value": 0.33}, {"measurement": "gene expression relative ratio db/db(Ax):db/m", "setting": "[5]", "value": 6.96}, {"measurement": "gene expression relative ratio db/db(Ax):db/db", "setting": "[6]", "value": 0.66}, {"measurement": "gene expression relative ratio db/db(Ax):db/m", "setting": "[6]", "value": 6.50}, {"measurement": "gene expression relative ratio db/db(Ax):db/db", "setting": "[7]", "value": 0.19}, {"measurement": "gene expression relative ratio db/db(Ax):db/m", "setting": "[7]", "value": 3.03}, {"measurement": "gene expression relative ratio db/db(Ax):db/db", "setting": "[8]", "value": 0.13}, {"measurement": "gene expression relative ratio db/db(Ax):db/m", "setting": "[8]", "value": 0.66}, {"measurement": "gene expression relative ratio db/db(Ax):db/db", "setting": "[9]", "value": 0.87}, {"measurement": "gene expression relative ratio db/db(Ax):db/m", "setting": "[9]", "value": 68.59}, {"measurement": "gene expression relative ratio db/db(Ax):db/db", "setting": "[10]", "value": 0.23}, {"measurement": "gene expression relative ratio db/db(Ax):db/m", "setting": "[10]; probe 1448184_at (Table 5)", "value": 4.00}, {"measurement": "gene expression intensity ratio db/db(Ax):db/db", "setting": "[11]", "value": 0.19}, {"measurement": "gene expression intensity ratio db/db(Ax):db/m", "setting": "[11]", "value": 0.87}]}
